Measured values taken from patent US20160250221A1, “INHIBITORS OF FAPP2 AND USES THEREOF” (FONDAZIONE TELETHON, priority 2013, published 2016).
Entries after “also recorded” stand apart in the source; their conditions may differ.

Tests used:
FAPP2-HIS-SUMO-C-212 = biological target: T1, FAPP2-HIS-SUMO-C-212 (Homo sapiens, UniProt Q96JA3); experiment: FRET GlcCer transfer assay with FAPP2-C212 (384-well); type: biochemical; conditions: for inhibition of FAPP2 transfer activity: 50 uM compound
T1 construct: the recombinant FAPP2 protein is FAPP2-GLTP-C212 or FAPP2 Full-Length (FL)
T1 sequence (Q96JA3 310-519 limits assumed): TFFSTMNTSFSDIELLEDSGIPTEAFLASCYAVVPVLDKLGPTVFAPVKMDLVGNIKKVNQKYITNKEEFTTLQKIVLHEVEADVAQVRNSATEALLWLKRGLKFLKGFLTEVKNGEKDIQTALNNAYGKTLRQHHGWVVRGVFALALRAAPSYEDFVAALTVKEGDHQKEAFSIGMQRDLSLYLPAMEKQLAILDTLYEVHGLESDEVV
Procedure: (§1) FAPP2 transfer activity has been evaluated using Fluorescence Resonance Energy Transfer. The FRET assay involves mixing of acceptor vesicles (formed by sonication of 1,2-dioleoyl-sn-glycero-3-phosphocholine (DOPC) suspended in buffer) with donor vesicles containing TopFLUOR-labeled GlcCer (1 mole %) and Di1C18 used as quencher (3 mole %), and recombinant FAPP2 protein (0.5 uM). Recovery of emission intensity at 520 nm (excitation at 485 nm) occurs during FAPP2-mediated transfer of GlcosylCeramide from quenched donor vesicles to unquenched acceptor vesicles. The assay has been performed using FAPP2-GLTP-C212 or FAPP2 Full-Length (FL). In order to conduct the high throughput inhibitor screen, the transfer activity assay was adapted to a microplate format (384 well plate) and read using Synergy Neo HTS Multi-Mode Microplate Reader. First, mixture containing 30 ul of acceptor small unilamellar vesicles, FAPP2 transport protein, and drug in buffer was added to each well in triplicate and read for 1 min to calculate the fluorescence baseline. Then 30 ul donor vesicles were added to each well and read for 15 or 30 mins. Since the increase in fluorescence emission occurs exclusively in presence of FAPP2 transport, the inhibition rate of each compound is evaluated by its ability to decrease the fluorescence emission.

FAPP2-FL-SUMO = biological target: T2, FAPP2-FL-SUMO (Homo sapiens, UniProt Q96JA3); experiment: FRET-based GlcCer transfer assay, Example 8 (96-well, full-length FAPP2); type: biochemical; conditions: for competition with the GlcCer transfer activity of FAPP2: final concentration 10 uM
T2 construct: FAPP2-FL-SUMO (recombinant FAPP2 full length protein tagged with small ubiquitin-related modifier); made in house; host or cells: Rosetta cells (E. coli, own knowledge)
T2 sequence (Q96JA3 1-519): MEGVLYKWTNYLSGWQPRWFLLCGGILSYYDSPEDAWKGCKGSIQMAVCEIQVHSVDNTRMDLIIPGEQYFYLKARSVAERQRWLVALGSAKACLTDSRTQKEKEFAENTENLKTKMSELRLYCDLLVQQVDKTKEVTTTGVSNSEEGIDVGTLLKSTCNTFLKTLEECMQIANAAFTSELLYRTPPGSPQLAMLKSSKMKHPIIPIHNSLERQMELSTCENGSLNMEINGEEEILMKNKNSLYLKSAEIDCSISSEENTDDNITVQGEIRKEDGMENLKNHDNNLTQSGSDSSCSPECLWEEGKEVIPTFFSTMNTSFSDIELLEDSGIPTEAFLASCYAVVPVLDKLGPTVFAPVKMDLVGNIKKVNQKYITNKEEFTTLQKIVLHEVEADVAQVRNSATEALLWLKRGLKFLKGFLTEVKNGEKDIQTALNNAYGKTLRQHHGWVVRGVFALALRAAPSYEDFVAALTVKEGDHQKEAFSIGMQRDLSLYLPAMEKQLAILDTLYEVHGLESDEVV
Procedure: Specifically, acceptor vesicles (formed by sonication of 1,2-dioleoyl-sn-glycero-3-phosphocholine (DOPC) were suspended in 10 mM NaH2PO4 buffer, pH 7.4, containing 1 mM dithiothreitol and 1 mM EDTA) and were incubated with donor vesicles containing BODIPY-labeled GlcCer (1 or 2 mole %, as indicated) and Di1C18 used as quencher (3 mole %), and recombinant FAPP2 protein (at the indicated concentrations).
Recovery of emission intensity at 520 nm (excitation at 485 nm) occurred during protein-mediated transfer of GlcCer from quenched donor vesicles to unquenched acceptor vesicles.
Phlorizin and Dapagliflozin were resuspended in DMSO (100 mM). The assay was conducted at four different concentrations (1 mM, 500 uM, 200 uM, 100 uM). Both FAPP2 WT and FAPP2 W407A were used to highlight possible non-specific effects of the drugs on fluorescence emission. First, mixture that contained FAPP2, acceptor small unilamellar vesicles and drug in buffer were added to 96 well plates, the plate was immediately loaded into the plate reader. Following 2 sec of shaking, the fluorescence emission @520 nm (excitation 485 nm) was measured at 10 sec intervals for 5 mins to calculate the baseline fluorescence. Then, donor vesicles were added to each well and read again for the indicated time. The experiments were repeated at least 3 times and each measurement performed in triplicate.
To screen and identify small molecules for drug development for Fabry disease treatment, a miniaturized FRET-based in vitro screening assay was developed to screen for small molecules that can inhibit FAPP2. The miniaturized FRET-based in vitro screening assay tests the ability of FAPP2 to transfer GlcCer from donor to acceptor and identifies small molecules able to inhibit the transfer activity of FAPP2. The flFAPP2 was produced as Sumo-fusion protein and assayed in Rosetta cells.

[1] = system: ts045 VSV-G (VSVG) transport; type: cell-based; conditions: dicoumarol 200 μM
HeLa cells = experiment: GSL synthesis by 3H-sphingosine metabolic labelling; type: cell-based
FAPP2-FL-SUMO-HIS = biological target: T3, FAPP2-FL-SUMO-HIS (Homo sapiens, UniProt Q96JA3); experiment: FRET GlcCer transfer assay with full-length FAPP2 (Example 9); type: biochemical; conditions: 50 uM compound; FAPP2-FL-SUMO-HIS at 0.5 uM; measured for 15 mins
T3 construct: The assay has been performed using FAPP2-GLTP-C212 or FAPP2 Full-Length (FL); made in house; host or cells: Rosetta cells (E. coli, own knowledge)
T3 sequence (Q96JA3 1-519): T2 sequence (Q96JA3 1-519)
Procedure: as §1

[2] = system: 3XHA-Gb3S and 3XHA-GM3S distribution; experiment: Immunofluorescence localization of HA-GM3S and HA-Gb3S; type: cell-based; conditions: BFA 5 μg/ml 30 min
Procedure: All immunofluorescence experiments were performed as described previously^1,14. Images are confocal optical slices obtained using an LSM 710 (Zeiss) confocal microscope. Colocalization analysis was performed as described in^14 or by using an object-based colocalization method included in the JACoP v2.0 application for ImageJ^16. In brief, individual mini-stacks in nocodazole-treated cells were considered as objects, whose mass-center position was calculated after segmentation, the perfect coincidence of mass-center positions for two distinct labelling (i.e. Gb3S/TGN46, or GM3S/TGN46) in a single ministack was considered as a positive colocalization event.

[3] = FAPP2-C212 at 0.5 uM, measured for 30 mins

With `CCc1oc2ccccc2c1C(=O)c1cc(Br)c(O)c(Br)c1` [Benzbromarone] the “ranking as FAPP2 inhibitor in vitro” value (FAPP2-HIS-SUMO-C-212) was “one of the most potent FAPP2 inhibitors” and the “inhibition of FAPP2 transfer activity” value (FAPP2-HIS-SUMO-C-212; [3]) was 80%.

With `CCSc1ccc2c(c1)N(CCCN1CCN(C)CC1)c1ccccc1S2` [Thiethylperazine] the “inhibition of FAPP2 transfer activity” value (FAPP2-HIS-SUMO-C-212; [3]) was 60%.

For `CCCCCCCCCCCCC/C=C/[C@@H](O)[C@H](COC1OC(CO)C(O)C(O)C1O)NC(=O)CCCCCCC` (some centres unmarked) [C8-GlcCer], the “competition with the GlcCer transfer activity of FAPP2” value (FAPP2-FL-SUMO) was “able to inhibit transfer by competition” and the “competition with the GlcCer transfer activity of FAPP2” value (FAPP2-FL-SUMO; listed as C8-G1Cer) was “competes”.

`O=c1oc2ccccc2c(O)c1Cc1c(O)c2ccccc2oc1=O` [dicoumarol] was tested, and the “intra-Golgi progression of VSVG” value [1] was “suppressed” and the GM3 synthesis (HeLa cells; dicoumarol 200 μM, 3 hours 3H-sphingosine pulse) was “strongly inhibited”.

For `CC(C)=CCC/C(C)=C/CC/C(C)=C/Cc1c(O)cc(C)c(C(=O)O)c1O` [Grifolic Acid], the “ranking as FAPP2 inhibitor in vitro” value (FAPP2-HIS-SUMO-C-212) was “most active FAPP2 inhibitor in vitro”, the “effect on FAPP2-mediated GlcCer transfer” value (FAPP2-HIS-SUMO-C-212; 50 uM, FAPP2-C212 at 0.5 uM, measured for 30 mins) was “significantly reduced” and the “effect on FAPP2-mediated GlcCer transfer” value (FAPP2-HIS-SUMO-C-212; 100 uM, FAPP2-C212 at 0.5 uM, measured for 30 mins) was “significantly reduced”.

With `O=C(O)Cn1nnc(-c2cc(N3CCC(Oc4cc(F)ccc4Br)CC3)no2)n1` [MK-8245] the “inhibition of FAPP2 transfer activity” value (FAPP2-FL-SUMO-HIS) was 40%.

For `O=C(Nc1cccc2c(=O)cc(-c3nn[nH]n3)oc12)c1ccc(OCCCCc2ccccc2)cc1` [Pranlukast], the “inhibition of FAPP2 transfer activity” value (FAPP2-HIS-SUMO-C-212; [3]) was 90%.

In the case of `Cc1cc(OCCCS(C)(=O)=O)cc(C)c1-c1cccc(COc2ccc3c(c2)OCC3CC(=O)O)c1` (centres unmarked) [TAK-875], the “effect on FAPP2-mediated GlcCer transfer” value (FAPP2-HIS-SUMO-C-212; 100 uM, FAPP2 at 0.5 uM, measured for 15 mins) was “significantly reduced”.

In the case of `COc1cc(C(=O)NS(=O)(=O)c2ccccc2C)ccc1Cc1cn(C)c2ccc(NC(=O)OC3CCCC3)cc12` [Zafirlukast], the “inhibition of FAPP2 transfer activity” value (FAPP2-HIS-SUMO-C-212; [3]) was 90%.

In the case of `O=C(CCc1ccc(O)cc1)c1c(O)cc(O)cc1O[C@@H]1O[C@H](CO)[C@@H](O)[C@H](O)[C@H]1O` [Phlorizin], the “inhibition of GlcCer transfer activity of FAPP2” value (FAPP2-FL-SUMO; four drug concentrations (100 uM, 200 uM, 500 uM, 1 mM)) was “can inhibit; also recorded: inhibits the GlcCer transfer”.

In the case of `CCOc1cc(CC(=O)N[C@@H](CC(C)C)c2ccccc2N2CCCCC2)ccc1C(=O)O` [Repaglinide], the “inhibition of FAPP2 transfer activity” value (FAPP2-FL-SUMO-HIS) was 50%.

`C[C@H]1CCC/C=C/[C@@H]2C[C@H](O)C[C@H]2[C@H](O)/C=C/C(=O)O1` [BFA, Brefeldin A] was tested, and the “redistribution of GM3S to the ER” value [2] was “redistributed”, the Gb3 synthesis (HeLa cells; BFA 5 μg/mL) was “decreased” and the GM3 synthesis (HeLa cells; BFA 5 μg/mL, parental cells) was “but not that of GM3”. For the same compound, the GM3 synthesis (HeLa cells; HeLa cells overexpressing GM3S (HeLa-GM3S), BFA 5 μg/mL) was “became sensitive”.
